Measurements from PMC5218480 (PLoS ONE, 2017).

Tested on: MV-4-11 cells
Assay: Gene expression microarray analysis (Affymetrix PrimeView) and GSEA
Assay type: cell-based, human
Parameters: RFU PODN (11730768_x_at) / Fold change /veh PODN (11730768_x_at) / RFU LINC00158 (11744669_a_at) / Fold change /veh LINC00158 (11744669_a_at) / RFU DUSP10 (11751237_a_at) / Fold change /veh DUSP10 (11751237_a_at) / RFU ID3 (11757404_x_at) / Fold change /veh ID3 (11757404_x_at) / RFU PLEKHG5 (11737974_s_at) / Fold change /veh PLEKHG5 (11737974_s_at) / RFU LRRC4B (11730491_at) / Fold change /veh LRRC4B (11730491_at) / RFU GIMAP4 (11747438_a_at) / Fold change /veh GIMAP4 (11747438_a_at) / RFU KRT8 (11758183_x_at) / Fold change /veh KRT8 (11758183_x_at) / RFU CNN1 (11734310_a_at) / Fold change /veh CNN1 (11734310_a_at) / RFU VPS37D (11726825_at) / Fold change /veh VPS37D (11726825_at) / RFU C10orf10 (11716522_x_at) / Fold change /veh C10orf10 (11716522_x_at) / RFU KIR2DL2 /// KIR2DL4 /// KIR2DL5A /// KIR2DL5B /// KIR2DS1 /// KIR2DS2 /// KIR2DS3 /// KIR2DS4 /// KIR3DL3 /// KIR3DL3 /// KIR3DS1 (11738374_at) / Fold change /veh KIR2DL2 /// KIR2DL4 /// KIR2DL5A /// KIR2DL5B /// KIR2DS1 /// KIR2DS2 /// KIR2DS3 /// KIR2DS4 /// KIR3DL3 /// KIR3DL3 /// KIR3DS1 (11738374_at) / RFU C1QL1 (11718748_at) / Fold change /veh C1QL1 (11718748_at) / RFU TMPRSS4 (11747572_a_at) / Fold change /veh TMPRSS4 (11747572_a_at) / RFU HAMP (11756126_x_at) / Fold change /veh HAMP (11756126_x_at) / RFU RNFT2 (11725882_a_at) / Fold change /veh RNFT2 (11725882_a_at) / RFU NR4A2 (11747474_a_at) / Fold change /veh NR4A2 (11747474_a_at) / RFU ABCC12 (11746883_a_at) / Fold change /veh ABCC12 (11746883_a_at) / RFU TMEM136 (11760407_x_at) / Fold change /veh TMEM136 (11760407_x_at) / RFU CLDN22 /// WWC2 (11732394_at) / Fold change /veh CLDN22 /// WWC2 (11732394_at) / RFU HLA-DPB1 (11760878_x_at) / Fold change /veh HLA-DPB1 (11760878_x_at) / RFU SPINT1 (11716480_a_at) / Fold change /veh SPINT1 (11716480_a_at) / RFU GAP43 (11754022_s_at) / Fold change /veh GAP43 (11754022_s_at) / RFU A4GNT (11735810_at) / Fold change /veh A4GNT (11735810_at) / RFU PRB3 (11715151_x_at) / Fold change /veh PRB3 (11715151_x_at) / RFU TUBB4B (11761932_at) / Fold change /veh TUBB4B (11761932_at) / RFU CAPN14 (11732068_a_at) / Fold change /veh CAPN14 (11732068_a_at) / RFU TMCC2 (11721928_a_at) / Fold change /veh TMCC2 (11721928_a_at) / RFU IRGQ (11745062_a_at) / Fold change /veh IRGQ (11745062_a_at) / RFU FAM174B (11720279_a_at) / Fold change /veh FAM174B (11720279_a_at) / RFU TMPRSS4 (11748680_a_at) / Fold change /veh TMPRSS4 (11748680_a_at) / RFU FAM212B (11763350_a_at) / Fold change /veh FAM212B (11763350_a_at) / RFU PLEKHG5 (11743358_a_at) / Fold change /veh PLEKHG5 (11743358_a_at) / RFU ZSCAN30 (11745921_a_at) / Fold change /veh ZSCAN30 (11745921_a_at) / RFU CMKLR1 (11741424_a_at) / Fold change /veh CMKLR1 (11741424_a_at) / RFU LOC101060620 /// MAPK8IP1 (11723275_at) / Fold change /veh LOC101060620 /// MAPK8IP1 (11723275_at) / RFU SPTSSB (11747773_x_at) / Fold change /veh SPTSSB (11747773_x_at) / RFU PRSS12 (11739890_at) / Fold change /veh PRSS12 (11739890_at) / RFU BIN1 (11741810_x_at) / Fold change /veh BIN1 (11741810_x_at) / RFU WNT11 (11732464_a_at) / Fold change /veh WNT11 (11732464_a_at) / RFU C10orf10 (11716521_a_at) / Fold change /veh C10orf10 (11716521_a_at) / RFU C5orf56 (11738089_at) / Fold change /veh C5orf56 (11738089_at) / RFU CYB561 (11721691_x_at) / Fold change /veh CYB561 (11721691_x_at) / RFU ANKRD19P (11752326_a_at) / Fold change /veh ANKRD19P (11752326_a_at) / RFU OR2T12 /// OR2T33 /// OR2T8 (11738714_s_at) / Fold change /veh OR2T12 /// OR2T33 /// OR2T8 (11738714_s_at) / RFU VCAN (11748164_a_at) / Fold change /veh VCAN (11748164_a_at) / RFU JSRP1 (11732532_at) / Fold change /veh JSRP1 (11732532_at) / RFU KRTAP10-11 (11738290_x_at) / Fold change /veh KRTAP10-11 (11738290_x_at) / RFU MYO3A (11730013_a_at) / Fold change /veh MYO3A (11730013_a_at) / RFU EBF3 (11725865_a_at) / Fold change /veh EBF3 (11725865_a_at) / RFU CAMK2N1 (11719241_x_at) / Fold change /veh CAMK2N1 (11719241_x_at) / RFU C5orf56 (11738088_a_at) / Fold change /veh C5orf56 (11738088_a_at) / RFU OLFML3 (11715873_a_at) / Fold change /veh OLFML3 (11715873_a_at) / RFU LOC100653217 /// NTM (11731650_a_at) / Fold change /veh LOC100653217 /// NTM (11731650_a_at) / RFU MAPK11 (11762145_a_at) / Fold change /veh MAPK11 (11762145_a_at) / RFU FIZ1 (11724087_x_at) / Fold change /veh FIZ1 (11724087_x_at) / RFU OASL (11726364_x_at) / Fold change /veh OASL (11726364_x_at) / RFU SOX15 (11748057_x_at) / Fold change /veh SOX15 (11748057_x_at) / RFU CD79A (11719716_a_at) / Fold change /veh CD79A (11719716_a_at) / RFU HIST1H1D (11736915_at) / Fold change /veh HIST1H1D (11736915_at) / RFU CASKIN2 (11723855_a_at) / Fold change /veh CASKIN2 (11723855_a_at) / RFU LOC730098 (11760151_x_at) / Fold change /veh LOC730098 (11760151_x_at) / RFU OR4N2 (11742367_at) / Fold change /veh OR4N2 (11742367_at) / RFU PRRT2 (11749266_a_at) / Fold change /veh PRRT2 (11749266_a_at) / RFU SNX32 (11753110_a_at) / Fold change /veh SNX32 (11753110_a_at) / RFU CDHR5 (11726645_a_at) / Fold change /veh CDHR5 (11726645_a_at) / RFU RCAN1 (11760418_a_at) / Fold change /veh RCAN1 (11760418_a_at) / RFU FAM167A (11723789_a_at) / Fold change /veh FAM167A (11723789_a_at) / RFU FAM26E (11764081_at) / Fold change /veh FAM26E (11764081_at) / RFU ISYNA1 (11749810_s_at) / Fold change /veh ISYNA1 (11749810_s_at) / RFU ACY1 (11761880_at) / Fold change /veh ACY1 (11761880_at) / RFU 11764098_at / Fold change /veh 11764098_at / RFU SAMD14 (11745864_x_at) / Fold change /veh SAMD14 (11745864_x_at) / RFU NPB (11741838_a_at) / Fold change /veh NPB (11741838_a_at) / RFU TMPRSS6 (11731388_a_at) / Fold change /veh TMPRSS6 (11731388_a_at) / RFU KRTAP10-2 (11738614_at) / Fold change /veh KRTAP10-2 (11738614_at) / RFU ARHGAP8 /// PRR5-ARHGAP8 (11727945_x_at) / Fold change /veh ARHGAP8 /// PRR5-ARHGAP8 (11727945_x_at) / RFU KRTAP5-7 /// NADSYN1 (11734609_at) / Fold change /veh KRTAP5-7 /// NADSYN1 (11734609_at) / RFU RASL12 (11751679_a_at) / Fold change /veh RASL12 (11751679_a_at) / RFU CDKN2B (11736163_a_at) / Fold change /veh CDKN2B (11736163_a_at) / RFU PRF1 (11729649_at) / Fold change /veh PRF1 (11729649_at) / RFU, ZNF638 /// ZNF638-IT1 / Fold change vs veh, ZNF638 /// ZNF638-IT1 / RFU, PANK3 / Fold change vs veh, PANK3 / RFU, SH3YL1 / Fold change vs veh, SH3YL1 / RFU, ZEB2 / Fold change vs veh, ZEB2 / RFU, NRIP1 / Fold change vs veh, NRIP1 / RFU, PTTG1IP / Fold change vs veh, PTTG1IP / RFU, CAPN2 / Fold change vs veh, CAPN2 / RFU, MED14 / Fold change vs veh, MED14 / RFU, SNORA58 / Fold change vs veh, SNORA58 / RFU, C1orf63 / Fold change vs veh, C1orf63 / RFU, LRRFIP1 / Fold change vs veh, LRRFIP1 / RFU, NDUFAF7 / Fold change vs veh, NDUFAF7 / RFU, SLC12A2 / Fold change vs veh, SLC12A2 / RFU, IBTK / Fold change vs veh, IBTK / RFU, ESF1 / Fold change vs veh, ESF1 / Fold change vs veh, TMEM50B / RFU, TAOK1 / Fold change vs veh, TAOK1 / RFU, ACBD3 / Fold change vs veh, ACBD3 / RFU, TMA16 / Fold change vs veh, TMA16 / RFU, RWDD3 / Fold change vs veh, RWDD3 / RFU, BCAT1 / Fold change vs veh, BCAT1 / RFU, EDEM3 / Fold change vs veh, EDEM3 / RFU, TMEM33 / Fold change vs veh, TMEM33 / RFU, WDR75 / Fold change vs veh, WDR75 / RFU, AHCTF1 / Fold change vs veh, AHCTF1 / RFU, TFRC / Fold change vs veh, TFRC / RFU, ZDHHC17 / Fold change vs veh, ZDHHC17 / RFU, NOM1 / Fold change vs veh, NOM1 / RFU, ARL8B / Fold change vs veh, ARL8B / RFU, ZBTB11 / Fold change vs veh, ZBTB11 / RFU, TAMM41 / Fold change vs veh, TAMM41 / RFU, KIAA1704 /// LOC100996395 / Fold change vs veh, KIAA1704 /// LOC100996395 / RFU, ING1 / Fold change vs veh, ING1 / RFU, TRMT61B / Fold change vs veh, TRMT61B / RFU, FUBP3 / Fold change vs veh, FUBP3 / RFU, TP53 / Fold change vs veh, TP53 / RFU, TNKS2 / Fold change vs veh, TNKS2 / RFU, ZFP14 / Fold change vs veh, ZFP14 / RFU, ACTR2 / Fold change vs veh, ACTR2 / RFU, PPP3R1 / Fold change vs veh, PPP3R1 / RFU, PIK3R1 / Fold change vs veh, PIK3R1 / RFU, HNRNPA1 / Fold change vs veh, HNRNPA1 / RFU, RNF170 / Fold change vs veh, RNF170 / RFU, ZNF28 / Fold change vs veh, ZNF28 / RFU, RNGTT / Fold change vs veh, RNGTT / RFU, OGT / Fold change vs veh, OGT / RFU, BRD1 / Fold change vs veh, BRD1 / RFU, MARS / Fold change vs veh, MARS / RFU, ZNF655 / Fold change vs veh, ZNF655 / RFU, FAHD1 / Fold change vs veh, FAHD1 / RFU, BDP1 / Fold change vs veh, BDP1 / RFU, LRRCC1 / Fold change vs veh, LRRCC1 / RFU, ARID1A / Fold change vs veh, ARID1A / RFU, ZNF146 / Fold change vs veh, ZNF146 / RFU, ZNF330 / Fold change vs veh, ZNF330 / RFU, GPN3 / Fold change vs veh, GPN3 / RFU, C9orf123 / Fold change vs veh, C9orf123 / RFU, N4BP2L2 / Fold change vs veh, N4BP2L2 / RFU, ARFIP1 / Fold change vs veh, ARFIP1 / RFU, FAM179B / Fold change vs veh, FAM179B / RFU, BCL10 / Fold change vs veh, BCL10 / RFU, UHRF1BP1L / Fold change vs veh, UHRF1BP1L / RFU, BET1 / Fold change vs veh, BET1 / RFU, CNOT2 / Fold change vs veh, CNOT2 / RFU, ZNF268 / Fold change vs veh, ZNF268 / Fold change vs veh, ZNF507 / RFU, DGCR2 / Fold change vs veh, DGCR2 / RFU, WDSUB1 / Fold change vs veh, WDSUB1 / Fold change vs veh, HSP90B1 /// MIR3652 / RFU, ADSS / Fold change vs veh, ADSS / RFU, GK / Fold change vs veh, GK / RFU, ZNF148 / Fold change vs veh, ZNF148 / RFU, TAF9 / Fold change vs veh, TAF9 / RFU, SLC1A5 / Fold change vs veh, SLC1A5 / RFU, SLMO2 / Fold change vs veh, SLMO2 / RFU, ABCC4 / Fold change vs veh, ABCC4 / RFU, LOC101060439 /// RAP1B / Fold change vs veh, LOC101060439 /// RAP1B / RFU, RFX7 / Fold change vs veh, RFX7 / RFU, GTPBP10 / Fold change vs veh, GTPBP10 / RFU, CNEP1R1 / Fold change vs veh, CNEP1R1 / RFU, BIVM-ERCC5 /// ERCC5 / Fold change vs veh, BIVM-ERCC5 /// ERCC5 / RFU, ILF3 / Fold change vs veh, ILF3 / RFU 11762660_at / Fold change /veh 11762660_at / RFU VCAN (11757783_s_at) / Fold change /veh VCAN (11757783_s_at) / RFU DDX43 (11728927_at) / Fold change /veh DDX43 (11728927_at) / RFU KRT8 (11758188_x_at) / Fold change /veh KRT8 (11758188_x_at) / RFU NKD1 (11759106_at) / Fold change /veh NKD1 (11759106_at) / RFU SRD5A1 (11742802_a_at) / Fold change /veh SRD5A1 (11742802_a_at) / RFU TPSAB1 /// TPSB2 (11721975_s_at) / Fold change /veh TPSAB1 /// TPSB2 (11721975_s_at) / RFU GSTM3 (11746129_a_at) / Fold change /veh GSTM3 (11746129_a_at) / RFU IL23R (11737362_x_at) / Fold change /veh IL23R (11737362_x_at) / RFU TMEM51 (11727254_a_at) / Fold change /veh TMEM51 (11727254_a_at) / RFU PIWIL2 (11732686_x_at) / Fold change /veh PIWIL2 (11732686_x_at) / RFU ORM1 (11744905_x_at) / Fold change /veh ORM1 (11744905_x_at) / RFU CCDC152 (11743942_at) / Fold change /veh CCDC152 (11743942_at) / RFU ECM1 (11717891_a_at) / Fold change /veh ECM1 (11717891_a_at) / RFU IL23R (11748794_a_at) / Fold change /veh IL23R (11748794_a_at) / RFU TNFAIP8L3 (11732012_x_at) / Fold change /veh TNFAIP8L3 (11732012_x_at) / RFU MBOAT4 (11741988_at) / Fold change /veh MBOAT4 (11741988_at) / RFU 11764193_at / Fold change /veh 11764193_at / RFU TMEM53 (11763286_at) / Fold change /veh TMEM53 (11763286_at) / RFU MAGEB2 (11727129_at) / Fold change /veh MAGEB2 (11727129_at) / RFU TMEM200A (11744735_a_at) / Fold change /veh TMEM200A (11744735_a_at) / RFU CCDC152 (11751479_a_at) / Fold change /veh CCDC152 (11751479_a_at) / RFU FAM211A (11726209_a_at) / Fold change /veh FAM211A (11726209_a_at) / RFU RGS16 (11746705_a_at) / Fold change /veh RGS16 (11746705_a_at) / RFU VCAN (11755009_s_at) / Fold change /veh VCAN (11755009_s_at) / RFU RHOB (11743442_s_at) / Fold change /veh RHOB (11743442_s_at) / RFU RGS16 (11720943_a_at) / Fold change /veh RGS16 (11720943_a_at) / RFU RGS16 (11720944_at) / Fold change /veh RGS16 (11720944_at) / RFU, VPS4B / Fold change vs veh, VPS4B / RFU, CREB1 / Fold change vs veh, CREB1 / RFU, DNAJC13 / Fold change vs veh, DNAJC13 / RFU, GNAQ / Fold change vs veh, GNAQ / RFU, CDK5R1 / Fold change vs veh, CDK5R1 / RFU, ZRANB3 / Fold change vs veh, ZRANB3 / RFU, CUL4A / Fold change vs veh, CUL4A / RFU, CCNY / Fold change vs veh, CCNY / RFU, UFL1 / Fold change vs veh, UFL1 / RFU, COG3 / Fold change vs veh, COG3 / RFU, DIAPH2 / Fold change vs veh, DIAPH2 / RFU, SKA2 / Fold change vs veh, SKA2 / RFU, AFF3 / Fold change vs veh, AFF3 / RFU, LMF1 / Fold change vs veh, LMF1 / RFU, IPO11 / Fold change vs veh, IPO11 / RFU, DFFB / Fold change vs veh, DFFB / RFU, FOXP1 / Fold change vs veh, FOXP1 / RFU, CARD8 / Fold change vs veh, CARD8 / RFU, STRN3 / Fold change vs veh, STRN3 / RFU, ADK / Fold change vs veh, ADK / RFU, RASSF2 / Fold change vs veh, RASSF2 / RFU, WIPF1 / Fold change vs veh, WIPF1 / RFU, LARP1B / Fold change vs veh, LARP1B / RFU, RASA1 / Fold change vs veh, RASA1 / RFU, RB1 / Fold change vs veh, RB1 / RFU, PPFIA1 / Fold change vs veh, PPFIA1 / RFU, MAT2A / Fold change vs veh, MAT2A / RFU, CCT5 / Fold change vs veh, CCT5 / RFU, WDR92 / Fold change vs veh, WDR92 / RFU, CUX1 / Fold change vs veh, CUX1 / RFU, TTC7A / Fold change vs veh, TTC7A / RFU, TMEM135 / Fold change vs veh, TMEM135 / RFU, DEPTOR / Fold change vs veh, DEPTOR / RFU, CPM / Fold change vs veh, CPM / RFU, DNAJB6 / Fold change vs veh, DNAJB6 / RFU, CACNA2D3 / Fold change vs veh, CACNA2D3 / RFU, DTX4 / Fold change vs veh, DTX4 / RFU, TFCP2 / Fold change vs veh, TFCP2 / RFU, GMCL1 /// GMCL1P1 / Fold change vs veh, GMCL1 /// GMCL1P1 / RFU, AEBP2 / Fold change vs veh, AEBP2 / RFU, SNHG1 /// SNORD22 /// SNORD25 /// SNORD26 /// SNORD27 /// SNORD28 /// SNORD29 /// SNORD31 / Fold change vs veh, SNHG1 /// SNORD22 /// SNORD25 /// SNORD26 /// SNORD27 /// SNORD28 /// SNORD29 /// SNORD31 / Fold change (Aza/veh), C12orf56 (ProbeSet 11735607_a_at) / Fold change (ACY-1035/veh), C12orf56 (ProbeSet 11735607_a_at) / Fold change (Aza/veh), FGFR1OP (ProbeSet 11751329_s_at) / Fold change (ACY-1035/veh), FGFR1OP (ProbeSet 11751329_s_at) / Fold change (Aza/veh), VPS36 (ProbeSet 11739960_a_at) / Fold change (ACY-1035/veh), VPS36 (ProbeSet 11739960_a_at) / RFU SYPL1 (11715823_x_at) / Fold change /veh SYPL1 (11715823_x_at) / RFU IGFBP7 (11715501_s_at) / Fold change /veh IGFBP7 (11715501_s_at) / RFU REEP3 (11722064_at) / Fold change /veh REEP3 (11722064_at) / RFU IGLL1 (11728026_x_at) / Fold change /veh IGLL1 (11728026_x_at): dose or concentration left out as unconfirmed
Conditions: MV-4-11 cells, 48 hours

## Nc1ccc(-c2cccs2)cc1NC(=O)c1ccc2c(c1)cc(C1CC1)n2CCN1CCOCC1 [ACY-1035]
  RFU FAM211A (11726209_a_at): 5.89 RFU
